US5686424A, “2-oxoethyl derivatives as immunosuppressants” (Miles Inc., priority 1995, dated 1997)

Legend:
[1] = tested on: NF-AT; assay: NF-AT Inhibition Assay Directed β-Galactosidase Expression in FGL-5 cells; assay type: cell-based; settings: 50% inhibition of NF-AT directed β-galactosidase activity in FGL-5 cells stimulated with phorbol dibutyrate and ionomycin; TABLE 3
Protocol: 3) NF-AT Assay Stimulation of T-cells leads to the appearance of several transcription factors, including one designated "NF-AT". These factors are involved in regulation of gene expression required for immunologic activation. Some of these transcription factors appear to have functions in a wide variety of cell types. By contrast, NF-AT is found primarily in T-cells and its role is restricted to early gene activation. […] Inhibition of NF-AT activity is measured using FGL-5 cells. FGL-5 is a cloned line of stably transfected Jurkat T-cells that contain two construct in which three tandem copies of the NF-AT DNA binding site direct transcription of both murine CD8 and the lacZ gene, encoding β-galactosidase ([…] et al., 1990, Genes & Development 4:1823). When these cells are stimulated with phorbol esters which activate protein kinase C and calcium ionophore to raise the intracellular calcium concentration, transcriptionally active NF-AT is produced. In T-cells, this normally leads to the expression of IL-2, T-cell growth factor. However, in FGL-5 cells NF-AT activation leads to the production of β-galactosidase which can be detected using an appropriate substrate. […] NF-AT Inhibition Assay Directed β-Galactosidase Expression This assay was performed essentially as described (Bierer et al., 1990, Proc. Natl. Acad. Sci. 87:9231). […] The assays were done with exponentially growing cells whose density was not greater than 0.5 million cells/ml. The cells were resuspended to 3 million cells/ml in medium and 0.1 ml was added to wells of a 96-well plate. The compounds of the present invention were dissolved in either ethanol or dimethylsulfoxide at 10 mM and […] of various dilutions in medium were added to cells in duplicate wells. Treatment controls consisted of duplicate wells containing 0.5 ml/well of either medium, ethanol or dimethylsulfoxide. The ethanol and dimethyl sulfoxide were at the same concentration as was used for the compounds. […] Phorbol dibutyrate (Sigma) and Ionomycin (Calbiochem) were dissolved at 50 μg/ml and 2 mM, respectively and stored at -70° C. […] For unstimulated cell controls, 0.5 ml/well of medium was added to duplicate wells. The plates were incubated overnight (16-18 hours) at 37° C. in a humidified atmosphere of 5% CO2 and air. β-galactosidase activity was measured as the fluorescence generated by the cleavage of 4-methyl umbelliferyl-β-D-galactoside (Sigma) at the β-galactoside bond. After overnight incubation, the cells were centrifuged at 500×g for 3 minutes in the 96-well plates and washed 3 times with PBS. […] The percent inhibition by each concentration of the compounds was calculated as: […]

[2] = tested on: human T-cells; assay: Suppression of Human T-Cell Proliferation Assay (PHA-stimulated, [3H]-thymidine incorporation); assay type: cell-based; settings: concentration inhibiting [3H]-thymidine incorporation of PHA-stimulated T-cells by 50%, 72 hours; TABLE 2; read-out: IC50
Summary of the method: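 SRBC-rosette-purified human peripheral T-cells stimulated with PHA-M (40 μg/ml stock) and compound dilutions, in duplicate, for 72 h at 37° C. Proliferation measured by [3H]-thymidine incorporation during the final 6 h, read by liquid scintillation counting.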

[3] = target: FKBP (Homo sapiens, UniProt P62942); assay: PPIase Inhibition Assay; assay type: biochemical; settings: concentration of inhibitor required for 50% inhibition of enzyme activity; FKBP, substrate Succinyl-Ala-Phe-Pro-Phe-para-nitroanilide; TABLE I
FKBP, sequence (P62942 whole entry): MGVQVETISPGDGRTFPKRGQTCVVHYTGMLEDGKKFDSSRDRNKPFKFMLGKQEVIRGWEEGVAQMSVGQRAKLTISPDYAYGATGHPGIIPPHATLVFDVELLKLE
Summary of the method: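 Chymotrypsin-coupled isomerization of Succinyl-Ala-Phe-Pro-Phe-para-nitroanilide by FKBP in ice-cold 25 mM HEPES pH 7.8, 100 mM NaCl, compound in DMSO. A390 followed 90 sec; first-order rate constants give % activity remaining after subtracting uncatalyzed rate; IC50 by linear regression of V-/V+ versus concentration.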

IC50 [1] | IC50 [3] | Structure (SMILES) | IC50 [2]
44 µM | 5.1 µM | O=C(CNC(=O)[C@@H]1CCCN1CC(=O)C12CC3CC(CC(C3)C1)C2)NCc1ccccc1 [Example 55, Glycine, N-[1-(2-Adamantan-1-yl-2-Oxoethyl)-L-Prolyl] Benzylamide] | 13 µM
73 µM | 1.2 µM | CC(C)[C@H](NC(=O)[C@@H]1CCCN1CC(=O)C12CC3CC(CC(C3)C1)C2)C(=O)NCc1ccccc1 [Example 56, L-Valine, N-[1-(2-Adamantan-1-yl-2-Oxoethyl)-L-Prolyl] Benzylamide] | 8 µM
> 100 µM | 0.22 µM | CC(C)C[C@H](NC(=O)[C@@H]1CCCN1CC(=O)C12CC3CC(CC(C3)C1)C2)C(=O)NCc1ccccc1 [Example 57, L-Leucine, N-[1-(2-Adamantan-1-yl-2-Oxoethyl)-L-Prolyl] Benzylamide] | 8 µM
20 µM | 2.3 µM | O=C(NCc1ccccc1)[C@H](Cc1ccccc1)NC(=O)[C@@H]1CCCN1CC(=O)C12CC3CC(CC(C3)C1)C2 [Example 58, L-Phenylalanine, N-[1-(2-Adamantan-1-yl-2-Oxoethyl)-L-Prolyl] Benzylamide] | 7 µM
> 100 µM | 0.71 µM | CCC[C@H](NC(=O)[C@@H]1CCCN1CC(=O)C12CC3CC(CC(C3)C1)C2)C(=O)NCc1ccccc1 [Example 59, L-Norvaline, N-[1-(2-Adamantan-1-yl-2-Oxoethyl)-L-Prolyl] Benzylamide] | 10 µM
18 µM | 0.4 µM | CCCC[C@H](NC(=O)[C@@H]1CCCN1CC(=O)C12CC3CC(CC(C3)C1)C2)C(=O)NCc1ccccc1 [Example 60, L-Norleucine, N-[1-(2-Adamantan-1-yl-2-Oxoethyl)-L-Prolyl] Benzylamide] | 16 µM
> 100 µM | < 5 µM | NC(=O)C[C@H](NC(=O)[C@@H]1CCCN1CC(=O)C12CC3CC(CC(C3)C1)C2)C(=O)NCc1ccccc1 [Example 61, L-Asparagine, N-[1-(2-Adamantan-1-yl-2-Oxoethyl)-L-Prolyl] Benzylamide] | 17 µM
16 µM | < 5 µM | O=C(NCc1ccccc1)[C@H](CC1CCCCC1)NC(=O)[C@@H]1CCCN1CC(=O)C12CC3CC(CC(C3)C1)C2 [Example 64, L-Cyclohexylalanine, N-[1-(2-Adamantan-1-yl-2-Oxoethyl)-L-Prolyl] Benzylamide] | 7 µM
17 µM | 0.1 µM | CC[C@H](C)[C@H](NC(=O)[C@@H]1CCCN1CC(=O)C12CC3CC(CC(C3)C1)C2)C(=O)N[C@@H](C)c1ccccc1 [Example 65, L-Isoleucine, N-[1-(2-Adamantan-1-yl-2-Oxoethyl)-L-Prolyl] alpha-(S)-methylbenzylamide] | 8 µM
> 100 µM | 0.71 µM | CC[C@H](C)[C@H](NC(=O)[C@@H]1CCCN1CC(=O)C12CC3CC(CC(C3)C1)C2)C(=O)NCc1ccncc1 [Example 67, L-Isoleucine, N-[1-(2-Adamantan-1-yl-2-Oxoethyl)-L-Prolyl] Pyridin-4-ylmethylamide] | 19 µM
60 µM | 0.4 µM | CC[C@H](C)[C@H](NC(=O)[C@@H]1CCCN1CC(=O)C12CC3CC(CC(C3)C1)C2)C(=O)NCc1ccccn1 [Example 68, L-Isoleucine, N-[1-(2-Adamantan-1-yl-2-Oxoethyl)-L-Prolyl] Pyridin-2-ylmethylamide] | 16 µM
16 µM | 0.2 µM | CC[C@H](C)[C@H](NC(=O)[C@@H]1CCCN1CC(=O)C12CC3CC(CC(C3)C1)C2)C(=O)NCc1ccc(OC)cc1 [Example 69, L-Isoleucine, N-[1-(2-Adamantan-1-yl-2-Oxoethyl)-L-Prolyl] 4-methoxybenzylamide] | 8 µM
16 µM | 0.64 µM | CC[C@H](C)[C@H](NC(=O)[C@@H]1CCCN1CC(=O)C12CC3CC(CC(C3)C1)C2)C(=O)NCc1ccccc1OC [Example 70, L-Isoleucine, N-[1-(2-Adamantan-1-yl-2-Oxoethyl)-L-Prolyl] 2-methoxybenzylamide] | 7 µM
12 µM | > 5 µM | CC[C@H](C)[C@H](NC(=O)[C@@H]1CCCN1CC(=O)OCC=C(C)CCC=C(C)CCC=C(C)C)C(=O)NCc1ccccc1 [Example 83, L-Isoleucine, N-[1-(2-[1-(3,7,11-Trimethyldodeca-2,6,10-trien-1-ol)]-2-Oxoethyl)-L-Proline] Benzylamide] | 7 µM
> 100 µM | 3.2 µM | CC[C@H](C)[C@H](NC(=O)[C@@H]1CCCN1CC(=O)OCC=Cc1ccccc1)C(=O)NCc1ccccc1 [Example 84, L-Isoleucine, N-[1-(2-(3-Phenyl-2-Propen-1-Oxy)-2-Oxoethyl)-L-Prolyl] Benzylamide] | > 100 µM
13 µM | < 5 µM | CC[C@H](C)[C@H](NC(=O)[C@@H]1CCCN1CC(=O)OCC=C(C)c1ccccc1)C(=O)NCc1ccccc1 [Example 85, L-Isoleucine, N-[1-(2-(3-Phenyl-3-Methyl-2-Propen-1-Oxy)-2-Oxoethyl)-L-Prolyl] Benzylamide] | 22 µM
13 µM | 0.88 µM | CCC(OC(=O)CN1CCC[C@H]1C(=O)N[C@H](C(=O)NCc1ccccc1)[C@@H](C)CC)c1ccccc1 (stereo partly drawn) [Example 86, L-Isoleucine, N-[1-(2-(1-Phenylpropoxy)-2-Oxoethyl)-L-Prolyl] Benzylamide] | 22 µM
6 µM | > 5 µM | CC[C@H](C)[C@H](NC(=O)[C@@H]1CCCN1CC(=O)OCC1(c2ccccc2)CCCCC1)C(=O)NCc1ccccc1 [Example 87, L-Isoleucine, N-[1-(2-(1-Phenyl-1-Cyclohexylmethoxy)-2-Oxoethyl)-L-Prolyl] Benzylamide] | 8 µM
13 µM | < 5 µM | CC[C@H](C)[C@H](NC(=O)[C@@H]1CCCN1CC(=O)OC(CN1CCOCC1)c1ccccc1)C(=O)NCc1ccccc1 (stereo partly drawn) [Example 88, L-Isoleucine, N-[1-(2-(1-Phenyl-2-(4-Morpholino)Ethoxy)-2-Oxoethyl)-L-Prolyl] Benzylamide] | 16 µM
5 µM | 0.12 µM | CC[C@H](C)[C@H](NC(=O)[C@@H]1CCCN1CC(=O)OC1(C)C2CC3CC(C2)CC1C3)C(=O)NCc1ccccc1 (stereo partly drawn) [Example 89, L-Isoleucine, N-[1-(2-(2-Oxy-2-Methyladamant-2-yl)-2-Oxoethyl)-L-Prolyl] Benzylamide] | 8 µM
26 µM | < 5 µM | CC[C@H](C)[C@H](NC(=O)[C@@H]1CCCN1CC(=O)NCC12CC3CC(CC(C3)C1)C2)C(=O)NCc1ccccc1 [Example 91, L-Isoleucine, N-[1-(Adamant-1-ylmethylcarbamoylmethyl)-L-Prolyl] Benzylamide] | 4 µM
24 µM | < 5 µM | CC[C@H](C)[C@H](NC(=O)[C@@H]1CCCN1CC(=O)C1CCC(C(C)(C)C)CC1)C(=O)NCc1ccccc1 (stereo partly drawn) [Example 96, L-Isoleucine, N-[1-(2-(4-tert-Butylcyclohexyl)-2-Oxoethyl)-L-Prolyl] Benzylamide] | 8 µM
32 µM | < 5 µM | CC[C@H](C)[C@H](NC(=O)[C@@H]1CCCN1CC(=O)C1CC2CCC1C2)C(=O)NCc1ccccc1 (stereo partly drawn) [Example 97] | 12 µM
> 33 µM | < 5 µM | CC[C@H](C)[C@H](NC(=O)[C@@H]1CCCN1CC(=O)c1cc(OC)c(OC)c(OC)c1)C(=O)NCc1ccccc1 [Example 98, L-Isoleucine, N-[1-(2-(3,4,5-Trimethoxyphenyl)-2-Oxoethyl)-L-Prolyl] Benzylamide] | 7 µM
